Measurements from the supplement of paper PMC10307832.

What was measured:
Assay in all cases: relative viability (nuclei count vs DMSO), 5 days (fraction); higher = more cells survive
[1] = compound: NC(=O)c1ccc(N(C(N)=O)c2c(F)cccc2F)nc1-c1ccc(F)cc1F [VX-702] + O=C(CCCCCCC(=O)Nc1ccccc1)NO [Vorinostat] (partner 1 µM)
How it was run: (§1)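 Nuclei were stained with Hoechst during a one-step fixation (final 0.05% Triton X-100, 1% formaldehyde, 1 ug/ml Hoechst) carried out 5 days after dosing, then counted on 4× images. The cells, lung cancer lines in 1536-well plates, had been dosed by pin tool the day after seeding with one drug alone or a fixed anchor-drug dose plus five library-drug doses (not always all listed) in √10 steps. Relative viability is the nuclei count in treated wells divided by that in vehicle wells, and each value is the median of duplicate plates.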

[2] = compound: CC(C)(C)c1nc(-c2cccc(NS(=O)(=O)c3c(F)cccc3F)c2F)c(-c2ccnc(N)n2)s1 [Dabrafenib] + O=C(c1cc(Cc2n[nH]c(=O)c3ccccc23)ccc1F)N1CCN(C(=O)C2CC2)CC1 [Olaparib] (partner 8 µM)
How it was run: as §1

[3] = compound: NC(=O)c1ccc(N(C(N)=O)c2c(F)cccc2F)nc1-c1ccc(F)cc1F [VX-702] + CS(=O)(=O)N1CCN(Cc2cc3nc(-c4cccc5[nH]ncc45)nc(N4CCOCC4)c3s2)CC1 [Pictilisib] (partner 1 µM)
How it was run: as §1

[4] = compound: CC(C)(C)c1nc(-c2cccc(NS(=O)(=O)c3c(F)cccc3F)c2F)c(-c2ccnc(N)n2)s1 [Dabrafenib] + Nc1nc2[nH]cc(CCc3ccc(C(=O)N[C@@H](CCC(=O)O)C(=O)O)cc3)c2c(=O)[nH]1 [Pemetrexed] (partner 0.2 µM)
How it was run: as §1

Row | Cell Line | relative viability ([1]; first compound 0.02 µM) | relative viability ([1]; first compound 0.2 µM) | relative viability ([1]; first compound 0.6325 µM) | relative viability ([1]; first compound 2 µM) | relative viability ([2]; first compound 0.003 µM) | relative viability ([2]; first compound 0.009487 µM) | relative viability ([2]; first compound 0.03 µM) | relative viability ([2]; first compound 0.09487 µM) | relative viability ([2]; first compound 0.3 µM) | relative viability ([3]; first compound 0.02 µM) | relative viability ([3]; first compound 0.2 µM) | relative viability ([3]; first compound 0.6325 µM) | relative viability ([3]; first compound 2 µM) | relative viability ([4]; first compound 0.003 µM) | relative viability ([4]; first compound 0.009487 µM) | relative viability ([4]; first compound 0.03 µM) | relative viability ([4]; first compound 0.09487 µM) | relative viability ([4]; first compound 0.3 µM)
1 | NCI-H2023 | 0.615 | 0.736 | 0.679 | 0.938 | 0.478 | 0.432 | 0.492 | 0.46 | 0.458 | 0.238 | 0.228 | 0.192 | 0.221 | 0.229 | 0.247 | 0.207 | 0.211 | 0.255
2 | NCI-H1944 | 0.625 | 0.557 | 0.558 | 0.414 | 0.402 | 0.41 | 0.382 | 0.393 | 0.402 | 0.362 | 0.333 | 0.326 | 0.284 | 0.569 | 0.58 | 0.587 | 0.444 | 0.668
3 | NCI-H2126 | 0.76 | 0.741 | 0.754 | 0.632 | 0.906 | 0.884 | 0.871 | 0.878 | 0.946 | 0.502 | 0.487 | 0.459 | 0.448 | 0.624 | 0.808 | 0.623 | 0.706 | 0.756
4 | NCI-H2170 | 0.967 | 0.734 | 0.842 | 0.874 | 0.653 | 0.605 | 0.544 | 0.5 | 0.625 | 0.339 | 0.317 | 0.324 | 0.283 | 0.274 | 0.265 | 0.26 | 0.252 | 0.282
5 | SW 1573 | 0.937 | 0.793 | 0.707 | 0.8 | 0.501 | 0.468 | 0.475 | 0.415 | 0.453 | 0.439 | 0.388 | 0.361 | 0.482 | 0.79 | 0.9 | 0.792 | 0.777 | 0.782
6 | EPLC-272H | 0.401 | 0.571 | 0.535 | 0.438 | 0.784 | 0.931 | 0.717 | 0.749 | 0.964 | 0.321 | 0.303 | 0.33 | 0.353 | 0.273 | 0.271 | 0.304 | 0.262 | 0.488
7 | NCI-H1651 | 0.536 | 0.558 | 0.53 | 0.586 | 0.177 | 0.186 | 0.176 | 0.147 | 0.165 | 0.649 | 0.645 | 0.668 | 0.57 | 0.575 | 0.555 | 0.525 | 0.416 | 0.613
8 | NCI-H23 | 0.491 | 0.566 | 0.575 | 0.669 | – | 0.312 | 0.3 | 0.292 | 0.329 | 0.506 | 0.424 | 0.464 | 0.652 | – | 0.67 | 0.504 | 0.7 | 0.597
9 | NCI-H1993 | 0.661 | 0.754 | 0.588 | 1.03 | 1.17 | 1.1 | 1.09 | 1.06 | 1.31 | 0.871 | 0.808 | 0.757 | 0.834 | 0.575 | 0.571 | 0.619 | 0.55 | 0.669
10 | NCI-H2405 | 1.1 | 0.909 | 0.972 | 1.1 | – | 0.838 | 0.674 | 0.804 | 0.89 | 0.459 | 0.41 | 0.459 | 0.572 | – | 0.967 | 0.687 | 0.878 | 0.839
11 | NCI-H661 | 0.775 | 0.786 | 0.76 | 0.816 | 0.739 | 0.685 | 0.746 | 0.75 | 0.773 | 0.395 | 0.458 | 0.426 | 0.421 | 0.942 | 0.934 | 0.876 | 0.931 | 0.933
12 | HCC-366 | 0.402 | 0.38 | 0.427 | 0.133 | 0.381 | 0.337 | 0.271 | 0.329 | 0.39 | 0.132 | 0.148 | 0.154 | 0.113 | 0.216 | 0.0959 | 0.172 | 0.124 | 0.193
